EP2657347A1, “Electrochemical competitive assay and use thereof” (Université Paris Diderot - Paris 7, priority 2012, dated 2013)
Values belong to the molecule of their own block, whether it stands above or below them.

What was measured:
D-Apt49 [1] = assay: Homogeneous electrochemical competitive binding assay in Tris buffer
Method: (§1) All experiments were performed in 5 mM Tris buffer (pH 7) containing 10 mM MgCl2 and 50 mM NaCl (Recognition Buffer, RBr). The L-Tym concentration is always 5 µM. For cyclic voltammetric experiments, 1 µM [Os(bpy)3]2+ with 5 µM 1-Tym in a droplet of 50 µL RBr was used. So, before each experiment, the droplet is shaking with a micropipette. This procedure is repeated until we obtain a reproducible and stable voltammogram. Mother solution of Fc-1-Tym was a […] solution in DMF. This product is conserved at 4°C and seal with parafilm. Before each experiment, this solution is diluted 10 times in stabilized DMF, such as 0.2 µL in 50 µL of RBr leads to 5 µM of Fc-1-Tym.
(§2) Cyclic voltammetry measurements were performed with an AUTOLAB PGSTAT 12 potentiostat/galvanostat controlled by computer, and the data were acquired using GPES 4.9007 software (EcoChemie, The Netherlands). Small self-contained electrochemical cells made of 3 screen-printed electrodes on a flat substrate were used for all experiments. The electrodes were printed using a DEK model-65 screen-printer. Working electrodes were 4 mm diameter screen-printed carbon electrodes prepared using a commercial carbon ink (Electrodag PF-470 A) deposited on the top of an underlying Ag layer (Electrodag 418 SS). Counter electrode was obtained using an Ag ink (Electrodag 418 SS).
(§3) Before experiments, the screen-printed carbon electrodes were coated with bovine serum albumin (BSA) by immersing the electrodes in a 1 mg/mL BSA solution for 10 minutes at room temperature. The BSA-modified electrodes were next cycled between 0 V and 0.8 V at v = 0.05 V/s, until of the capacitive background current in cyclic voltammetry was stablized.
The competitive assay can be described by the two equilibrated binding reactions 6a and 6b, in which Fc-L-Tym is L-tyrosinamide labeled by a redox-active ferrocene group. The ferrocenyl label was here incorporated on the ―OH position of the phenolic group (Scheme 1). Note that under this condition the catalytic oxidation of the phenolic residue is no more possible and only the ferrocene labeled molecule can be detected. [drawing 63] [drawing 64] with Kd = (CTCR)/CRT [formula] Kd^(*) = (CT^(*)CR)/CRT^(*) [formula] where CR is the concentration of free aptamer receptor. […] Ideally, the two binding constants should be as close as possible (Kd ≈ K^*d). The value of K^*d was determined by monitoring in CV the reversible response of 5 µM Fc-L-Tym solution as a function of increasing concentrations of D-Apt49.
The competitive binding assay was achieved from two separate solutions containing a starting mixture of 5 µM Fc- L-Tym and 3 µM or 10 µM D-Apt49, and to which an increasing amount of L-Tym was added. […]

L-Apt49 [2] = assay: Redox-mediated catalytic cyclic voltammetry titration with mirror-image aptamer; format: binding; details: nonlinear fit of eq 5; catalytic peak current, Tris buffer
Method: as §1
Cyclic voltammetry measurements were performed with an AUTOLAB PGSTAT 12 potentiostat/galvanostat controlled by computer, and the data were acquired using GPES 4.9007 software (EcoChemie, The Netherlands). Small self-contained electrochemical cells made of 3 screen-printed electrodes on a flat substrate were used for all experiments. […]
From the combination of eqs 3 and 5 and knowledge of the catalytic peak currents determined both in the absence of aptamer (ip^0) [formula] and at extrapolated infinite aptamer concentration (ip^(∞)), [formula] we can write eq 5 which allows to predict the normalized peak current response decreases as a function of aptamer and target concentrations. […]

D-Apt49 [3] = assay: Redox-mediated catalytic cyclic voltammetry titration with aptamer; format: binding; details: specificity / enantioselectivity test, Figure 2B
Method: as §1, §2, §3
The 49-mer aptamer we have used (see here above) is a sequence similar to the one that was previously selected by Vianini et al and successfully applied to chromatographic- and fluorescence-based L-Tym assays. Since direct electrochemical oxidation of phenolic compounds generally leads to electrode passivation and thus to poorly reproducible anodic peak current in cyclic voltammetry (CV), the electrochemical detection of L-Tym was performed by redox-mediated catalytic oxidation of the phenolic function. For such a purpose, we have used the one-electron redox mediator couple [Os^III/II(bpy)3]^3+/2+ which, according to its relatively high standard potential (E^0=+0.58 V vs. Ag/AgCl), is capable to efficiently catalyze the oxidation of phenolic compounds. [drawing 51]
The linear dependence of the peak current with both the square root of scan rate, v, and L-Tym concentration, indicates conditions of total catalysis for which the catalytic peak current response, ip, can be expressed by eq 1. ip = 0.609nFSCT^0 sqrt(DT)sqrt(fv/RT) [formula] where n is the number of electron involved in the catalytic reaction, F the Faraday constant, S the electrode area, C^0T the bulk concentration of L-Tym, and DT the diffusion coefficient of L-Tym. After aptamer addition, the binding reaction (eq 2) is rapidly set at equilibrium. [drawing 53] with Kd the dissociation constant. On the basis of a classical law of action mass and mass balance (i.e., C^0T = CT + CRT, with CT and CRT the free and receptor-bound target concentrations), and assuming a 1:1 binding stoichiometry, the free (χƒ) mole fraction of target in the bulk solution can thus be estimated by eq 3. χf = (CT)/(CT^0) = 1-(Kd + CT^0 + CR^0 -sqrt(((Kd+CT^0+CR^0))^2 -4CT^0 CR^0))/(2CT^0) [formula]
Here, C^0R is the total concentration of the aptamer receptor added to the solution. Under the assumption of a slow interconversion of free and bound target on the time scale of CV experiments, the catalytic peak current can thus be expressed by a linear combination of the catalytic currents related to the free and bound target through eq 4. ip = 0.609nFSCT^0 sqrt(fv/RT)[χfsqrt(DT)+(1-χf)sqrt(DRT)] [formula] where DT and DRT are the diffusion coefficients of the free and receptor-bound target, respectively. […]

L-Apt49 [4] = assay: Cyclic voltammetry of ferrocene-labeled target with mirror-image aptamer; format: binding; details: not shown
D-Apt49 [5] = assay: Cyclic voltammetry titration of ferrocene-labeled target with aptamer; format: binding; details: 5 µM Fc-L-Tym, increasing D-Apt49, Tris buffer pH 7.0; fit of eq 5; also used as predetermined value in competitive fits
Method: as §1
Cyclic voltammetry measurements were performed with an AUTOLAB PGSTAT 12 potentiostat/galvanostat controlled by computer, and the data were acquired using GPES 4.9007 software (EcoChemie, The Netherlands). […]
The competitive assay can be described by the two equilibrated binding reactions 6a and 6b, in which Fc-L-Tym is L-tyrosinamide labeled by a redox-active ferrocene group. […] Note that under this condition the catalytic oxidation of the phenolic residue is no more possible and only the ferrocene labeled molecule can be detected. […] The value of K^*d was determined by monitoring in CV the reversible response of 5 µM Fc-L-Tym solution as a function of increasing concentrations of D-Apt49. […]

D-Apt49 [6] = assay: Homogeneous electrochemical competitive binding assay in 20% fetal bovine serum
Method: • Figure 1: Electrochemically competitive assay of the invention. Left-hand column: before the addition of the sample: a first redox signal is measured. Right-hand column: after the addition of a sample containing the target to be detected or measured: a second redox signal is measured. (A) Homogeneous electrochemically competitive assay: the presence of the target disrupts the complex formed between the oligonucleotide ligand and the redox-labeled target. […] (B) Heterologous electrochemically competitive assay, wherein the oligonucleotide ligand is attached to a solid phase: the presence of the target disrupts the complex formed between the oligonucleotide ligand and the redox-labeled target, thereby inducing a better detection of the redox labeled-target. […] (C) Heterologous electrochemically competitive assay, wherein the oligonucleotide ligand is attached to the electrode: the presence of the target disrupts the complex formed between the oligonucleotide ligand and the redox-labeled target, thereby reducing the detection of the redox labeled-target. […] (f) CV of 1 µM [Os(bpy)3]^2+ alone. […] Error bars: standard deviations from 3 measurements. Plain lines: fits of eq 5 to the experimental data. • Figure 3: (A) CVs (v = 0.05 V s^-1) of 5 mM Tris buffer (pH 7.0) containing 50 mM NaCl, 10 mM Mg^2+, 5 µM Fc-L-Tym and (a) 0 µM, (b) 1 µM, (c) 2 µM, (d) 3 µM, (e) 4 µM (f) 5 µM (g) 7.5 µM (h) 10 µM (i) 12.5 µM and (j) 15 µM of D-Apt49. (B) Normalized anodic peak current response as a function of aptamer concentration. Each data is the average of 3 measurements. Error bars are standard deviations. Plain line: fit of eq 5 to the experimental data. • Figure 4: Competitive binding curves performed in (A) 5 mM Tris buffer (pH 7 + 50 mM NaCl + 10 mM MgCl2) or (B) 20% fetal bovine serum (simply diluted with a 4 mM MgCl2 aqueous solution) as a function of (●, ★, ▼, Δ) L-Tym or (○) D-Tym concentration. (*) Assay of 5 µM L-Tym in the presence of 5 mM D-Tym. The Fc-L-Tym concentration was always C^0T*= 5 µM, whereas the D-Apt49 concentrations were C^0R: (●) 3, (★,○,*) 10, (▼) 40 and (Δ) 100 µM.
The enantiospecificity of the assay was next characterized using the same methodology but for solutions containing the D-Tym enantiomer. […] To evaluate the enantiospecific performance of the aptamer, the assay of trace amount of L-Tym in the presence of a large excess of D-Tym was examined and, as reported in Figure 4A, it has been found possible to detect as low as 5 µM L-Tym in the presence of 5 mM D-Tym. This remarkable performance means that as low as 0.1 % of an enantiomeric impurity in a nonracemic mixture can be assayed in a very short analysis time (<1 min). This is competitive with conventional separation techniques, and one order of magnitude lower than the 1% currently attainable by NMR. Finally, the ability to perform an assay under realistic biological conditions was examined. For such purpose, homogenous electrochemical competitive binding assays of 5-fold diluted fetal bovin serum samples spiked with known amounts of […] were then performed (Figure 4B).

displacement of Fc-L-Tym from D-Apt49 (D-Apt49 [1]; 0-100 µM concentration range, 10 µM D-Apt49, Tris buffer): no displacement | response change (D-Apt49 [1]; concentrations as high as few millimolar): without significant response change | Kd (L-Apt49 [2]): 3.8 ± 0.7 µM
SMILES: NC(=O)[C@H](N)Cc1ccc(O)cc1 [D-Tym, d-tyrosinamide]
catalytic current response upon the addition of D-Apta49 (D-Apt49 [3]): no significant catalytic current response decrease

Kd (D-Apt49 [5]): 1.2 ± 0.4 µM | Kd (D-Apt49 [6]; 5-fold diluted fetal bovine serum, average of the fitted curves, read-out: K^*d (average value)): 75 µM | Kd (D-Apt49 [6]; 20% fetal bovine serum, 5 µM Fc-L-Tym, 40 µM D-Apt49, read-out: K^*d): 75 µM | Kd (D-Apt49 [6]; 20% fetal bovine serum, 5 µM Fc-L-Tym, 100 µM D-Apt49, read-out: K^*d): 75 µM
SMILES: NC(=O)[C@@H](N)Cc1ccc(O[c-]2cccc2)cc1.[Fe+2].c1cc[cH-]c1 [Fc-L-Tym, O-Ferrocenyltyrosynamide]
current change in the presence of L-Apt49 (L-Apt49 [4]): absence of current change

SMILES: N[C@@H](Cc1ccc(O)cc1)C(=O)O [L-tyrosine]
catalytic current response upon the addition of D-Apta49 (D-Apt49 [3]): no significant catalytic current response decrease

SMILES: CC(=O)Nc1ccc(O)cc1 [paracetamol]
catalytic current response upon the addition of D-Apta49 (D-Apt49 [3]): no significant catalytic current response decrease
